Experimental data from PubChem BioAssay (NCI).
Several values for one entry are separate records, joined by “and”; a condition that tells them apart may be missing. Equal entries are not always repeated.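 Assay format: 96-well plates, 48-hour exposure. GI50 marks 50% less growth. TGI denotes the concentration required for complete inhibition of growth.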

How the values were obtained:
Assay in all cases: NCI anticancer screen, dose series, 48 h
CCRF-CEM leukemia = tested on: CCRF-CEM leukemia
KM12 colon = tested on: KM12 colon
NCI-H460 lung = tested on: NCI-H460 lung
NCI/ADR-RES ovarian = tested on: NCI/ADR-RES ovarian
OVCAR-3 ovarian = tested on: OVCAR-3 ovarian
PC-3 prostate = tested on: PC-3 prostate
SF-539 CNS = tested on: SF-539 CNS
SK-MEL-5 melanoma = tested on: SK-MEL-5 melanoma
T-47D breast = tested on: T-47D breast
UACC-257 melanoma = tested on: UACC-257 melanoma

| SMILES | GI50 (CCRF-CEM leukemia) | TGI (CCRF-CEM leukemia) | GI50 (KM12 colon) | TGI (KM12 colon) | GI50 (NCI-H460 lung) | TGI (NCI-H460 lung) | GI50 (NCI/ADR-RES ovarian) | TGI (NCI/ADR-RES ovarian) | GI50 (OVCAR-3 ovarian) | TGI (OVCAR-3 ovarian) | GI50 (PC-3 prostate) | TGI (PC-3 prostate) | GI50 (SF-539 CNS) | TGI (SF-539 CNS) | GI50 (SK-MEL-5 melanoma) | TGI (SK-MEL-5 melanoma) | GI50 (T-47D breast) | TGI (T-47D breast) | GI50 (UACC-257 melanoma) | TGI (UACC-257 melanoma) |
| --- | --- | --- | --- | --- | --- | --- | --- | --- | --- | --- | --- | --- | --- | --- | --- | --- | --- | --- | --- | --- |
| N=C(N)c1ccc(OCCCCCOc2ccc(C(=N)N)cc2)cc1 | 23.7 µM and 11.1 µM and 45.1 µM | > 50 µM and 60.1 µM and > 100 µM | 2.5 µM and 6.35 µM and 14.3 µM | 14.3 µM and 20.9 µM and 31 µM | 1680 nM | 9 µM and 17.4 µM and 18.3 µM | 27.3 µM | > 100 µM | 5.25 µM | 15.4 µM and 34.9 µM and 37 µM | 6.92 µM | > 100 µM | 8.36 µM | 20.7 µM and 27.1 µM | 1020 nM and 2290 nM and 10100 nM | 3.33 µM and 11.7 µM and 29.5 µM | 1140 nM | 13.3 µM and 37.7 µM and > 100 µM | 4.44 µM and 7.51 µM and 15.5 µM | 26.3 µM and 23.7 µM and 48.9 µM |
| Oc1c(I)cc(Cl)c2cccnc12 | 2.81 µM and 1.89 µM | 9.89 µM and 4.71 µM | 5.98 µM and 18.2 µM | 49.9 µM and 47.7 µM | 3000 nM and 5840 nM | > 100 µM and 85.1 µM | 3.21 µM and 4.12 µM | 36 µM and 45.7 µM | 5.62 µM and 21.3 µM | 65.1 µM and 61.5 µM | 4.37 µM and 4.87 µM | 57.5 µM and 81.6 µM | 3.31 µM and 24.3 µM | 13.7 µM and 52.6 µM | 1830 nM and 4120 nM | 4.23 µM and 16.1 µM | 4160 nM and 8700 nM | 28.7 µM and > 100 µM | 3.61 µM and 24.5 µM | 83.5 µM and 71.5 µM |
| O=S(=O)(NCCCNc1nccc(-c2c(-c3cccc(F)c3)nc3occn23)n1)c1cccc2ccccc12 | 5.48 µM | > 100 µM | 3.8 µM | > 100 µM | 4790 nM | > 100 µM | 5.52 µM | > 100 µM | 13.5 µM | > 100 µM | 3.38 µM | > 100 µM | > 100 µM | > 100 µM | 3670 nM | 43.6 µM | 2590 nM | > 100 µM | 21 µM | > 100 µM |
| Cc1cc2c(cc1C)[n+](=O)c(C(=O)/C=C/c1ccccc1[N+](=O)[O-])c(C)n2[O-] | – | > 100 µM | – | > 100 µM | – | > 100 µM | – | > 100 µM | – | > 97 µM | – | > 100 µM | – | 47.2 µM | – | > 100 µM | – | > 100 µM | – | > 100 µM |
| N#Cc1cccc(C2C3=C(COC3=O)N(CCO)c3cc4c(cc32)CCC4)c1 (centres undefined) | 0.187 µM | > 50 µM | 0.136 µM | > 50 µM | 160 nM | 5.19 µM | 0.15 µM | > 50 µM | 0.123 µM | – | 0.15 µM | > 50 µM | 0.112 µM | 0.356 µM | 146 nM | 2.87 µM | 271 nM | > 50 µM | > 50 µM | > 50 µM |
| Cc1n(Cc2ccc3ccccc3n2)cc[n+]1Cc1ccc2ccccc2c1 | 1.07 µM | 11.5 µM | 0.488 µM | 3.8 µM | 659 nM | 11.2 µM | > 100 µM | > 100 µM | 0.515 µM | 5.1 µM | 0.467 µM | 10.6 µM | 0.579 µM | 8.76 µM | 533 nM | 1.61 µM | 371 nM | 7.22 µM | 0.506 µM | 2.89 µM |
| C=CC(C)(O)CCC1C(=C)C(O)CC2C(C)(C)CCCC12C (centres undefined) | – | 45.4 µM | – | 52.1 µM | – | 33.5 µM | – | 41.1 µM | – | 39.9 µM | – | 32.2 µM | – | 31.7 µM | – | 29.5 µM | – | 93.6 µM | – | 39 µM |
